# Laboratory results published in patent publication US8507692B2, “Ester compound and use thereof” (Sumitomo Chemical Company, Limited, priority 2010, dated 2013).
# Tests used:
# Assay type in all cases: in vivo
# [1] = test system: German cockroaches (Blattella germanica); experiment: Test Example 2: oil solution spray knock-down test on German cockroaches; details: 0.00625% (w/v) oil solution, 1.5 ml sprayed, adult German cockroaches
# Experimental: Zero point zero six two five (0.00625) part of the compound of the present inventions (1) to (6) and (9) to (12) was dissolved in 10 parts of isopropyl alcohol and the solution was mixed with 89.99375 parts of deodorized kerosene to prepare a 0.00625% (w/v) oil solution.
# Ten adult German cockroaches (Blattella germanica, 5 males and 5 females) were released in a test container (diameter 8.75 cm, 7.5 cm high, the bottom face is made of 16 mesh metallic wire), the inner face on which butter was applied, and the container was set at the bottom of a test chamber (bottom face: 46 cm×46 cm, height: 70 cm).
# Each 1.5 ml of the oil solution of the compound of the present invention (1) to (6) and (9) to (12) was sprayed using a spray gun at a pressure of 0.4 kg/cm^2 from 60 cm higher than the upper face of the container. Thirty seconds after the spraying, the container was pulled out from the chamber. After a prescribed time, the number of knocked-down cockroaches was counted and a knock-down ratio was determined (repeated once). A knocked-down ratio was calculated by the following equation. Knocked-down ratio(%)=(Number of knocked-down cockroaches/Number of test cockroaches)×100 The results (2 minutes after spraying) are shown in Table 2.
# [2] = test system: American cockroaches (Periplaneta Americana); experiment: Test Example 8: oil solution spray knock-down test on American cockroaches, 3 minutes; details: 0.1% (w/v) oil solution, 1.5 ml sprayed, adult American cockroaches
# Experimental: Zero point one (0.1) part of the compound of the present inventions (1) to (6) and (9) to (12) was dissolved in 10 parts of isopropyl alcohol and the solution was mixed with 89.9 parts of deodorized kerosene to prepare a 0.1% (w/v) oil solution.
# (§1) Six adult American cockroaches (Periplaneta Americana, 3 males and 3 females) were released in a test container (diameter 12.5 cm, 10 cm high, the bottom face is made of 16 mesh metallic wire), the inner face on which butter was applied, and the container was set at the bottom of a test chamber (bottom face: 46 cm×46 cm, height: 70 cm). Each 1.5 ml of the oil solution of the compound of the present invention (1) to (6) and (9) to (12) was sprayed using a spray gun at a pressure of 0.4 kg/cm^2 from 60 cm higher than the upper face of the container. Thirty seconds after the spraying, the container was pulled out from the chamber. Three minutes after spraying, the number of knocked-down cockroaches was counted and a knock-down ratio was determined (repeated twice). The knocked-down ratio was calculated by the following equation. Knocked-down ratio(%)=(Number of knocked-down cockroaches/Number of test cockroaches)×100
# [3] = test system: American cockroaches (Periplaneta Americana); experiment: Test Example 1: oil solution spray knock-down test on American cockroaches; details: 0.1% (w/v) oil solution, 1.5 ml sprayed, adult American cockroaches
# Experimental: Zero point one (0.1) part of the compound of the present inventions (1) to (6) was dissolved in 10 parts of isopropyl alcohol and the solution was mixed with 89.9 parts of deodorized kerosene to prepare a 0.1% (w/v) oil solution.
# as §1, with “(6)” for “(6) and (9) to (12)”, “After a prescribed time,” for “Three minutes after spraying,”
# For comparison, the test was conducted in the same manner as the above, except for using 2,5-dioxo-3-(2-propynyl)imidazolidinylmethyl=(1R)-trans-3-(2-methyl-1-propenyl)-2,2-dimethylcyclopropane carboxylate (compound described in Pesticide Science, 10, p. 291 (1979), hereinafter referred to as the comparative compound (1)) represented by the following formula:
# [drawing 41] and 2,5-dioxo-3-(2-propynyl)imidazolidinylmethyl=(1R)-cis-3-((Z)-2-cyano-2-methoxyethenyl)-2,2-dimethylcyclopropane carboxylate (compound described in JP-A-60-16962, hereinafter referred to as the comparative compound (2)) represented by the following formula: […]
# [4] = test system: common mosquitoes (Culex pipens pallens); experiment: Test Example 3: oil solution spray knock-down test on common mosquitoes in glass chamber; details: 0.025% (w/v) oil solution sprayed into 70 cm cubic glass chamber; adult female common mosquitoes; three minutes after spraying
# Experimental: (§2) Zero point zero two five (0.025) part of the compound of the present invention (1) and (13) was dissolved in 10 parts of isopropyl alcohol, and the solution was mixed with 89.975 parts of deodorized kerosene to prepare a 0.025% (w/v) oil solution.
# Ten adult female common mosquitoes (Culex pipens pallens) were released in a cubic glass chamber having each side of 70 cm. The oil solution of the compound of the present invention (1) and (13) was sprayed into the chamber through a small window on the side of the chamber using a spraying gun at a pressure of 0.9 kg/cm^2. Three minutes after spraying, the number of knocked-down mosquitoes was counted and a knock-down ratio was determined. A knocked-down ratio was calculated by the following equation. Knocked-down ratio(%)=(Number of knocked-down mosquitoes/Number of test mosquitoes)×100
# [5] = test system: houseflies (Musca domestica); experiment: Test Example 4: oil solution spray knock-down test on houseflies in glass chamber; details: 0.025% (w/v) oil solution, 0.7 ml sprayed into 70 cm cubic glass chamber; adult houseflies; five minutes after spraying
# Experimental: as §2
# Ten adult houseflies (Musca domestica) were released in a cubic glass chamber having each side of 70 cm, and 0.7 ml of the oil solution of the compound of the present invention (1) and (13) was sprayed into the chamber through a small window on the side of the chamber using a spraying gun at a pressure of 0.9 kg/cm^2. Five minutes after spraying, the number of knocked-down flies was counted and a knock-down ratio was determined. A knocked-down ratio was calculated by the following equation. Knocked-down ratio(%)=(Number of knocked-down flies/Number of test flies)×100
Compound,Knock-down ratio (%) 2 minutes after spraying [1] [%],Knock-down ratio (%) 3 minutes after spraying [2] [%],Knock-down ratio (%) 2 minutes after spraying [3] [%],Knocked-down ratio [4] [%],Knocked-down ratio [5] [%]
"C#CCN1CC(=O)N(COC(=O)[C@@H]2[C@@H](C=C(C#N)SC)C2(C)C)C1=O (relative stereo) [compound of the present invention (10), 2,5-dioxo-3-(2-propynyl)imidazolidinylmethyl=(1R)-trans-3-[(1EZ)-2-cyano-2-(methylthio)ethenyl]-2,2-dimethylcyclopropane carboxylate]",100,100,–,–,–
"C#CCN1CC(=O)N(COC(=O)[C@@H]2[C@@H](C=C(C#N)SCCC)C2(C)C)C1=O [compound of the present invention (3), 2,5-dioxo-3-(2-propynyl)imidazolidinylmethyl=(1R)-trans-3-[(1EZ)-2-cyano-2-(propylthio)ethenyl]-2,2-dimethylcyclopropane carboxylate]",100,100,100,–,–
"C#CCN1CC(=O)N(COC(=O)[C@@H]2[C@H](/C=C(/C#N)OC)C2(C)C)C1=O [comparative compound (2), 2,5-dioxo-3-(2-propynyl)imidazolidinylmethyl=(1R)-cis-3-((Z)-2-cyano-2-methoxyethenyl)-2,2-dimethylcyclopropane carboxylate, reference compound]",–,–,42,–,–
"C#CCN1CC(=O)N(COC(=O)[C@@H]2[C@@H](C=C(C#N)SCC)C2(C)C)C1=O (relative stereo) [compound of the present invention (2), 2,5-dioxo-3-(2-propynyl)imidazolidinylmethyl=(1R)-trans-3-[(1EZ)-2-cyano-2-(ethylthio)ethenyl]-2,2-dimethylcyclopropane carboxylate]",–,–,100,–,–
"C#CCN1CC(=O)N(COC(=O)[C@@H]2[C@@H](C=C(C#N)SCC)C2(C)C)C1=O (relative stereo) [compound of the present invention (9), 2,5-dioxo-3-(2-propynyl) imidazolidinylmethyl=(1R)-trans-3-[(1EZ)-2-cyano-2-(ethylthio)ethenyl]-2,2-dimethylcyclopropane carboxylate]",100,100,–,–,–
"C#CCN1CC(=O)N(COC(=O)[C@@H]2[C@@H](C=C(C)C)C2(C)C)C1=O [comparative compound (1), 2,5-dioxo-3-(2-propynyl)imidazolidinylmethyl=(1R)-trans-3-(2-methyl-1-propenyl)-2,2-dimethylcyclopropane carboxylate, reference compound]",–,–,58,–,–
"C#CCN1CC(=O)N(COC(=O)[C@@H]2[C@@H](C=C(C#N)SC(C)C)C2(C)C)C1=O [compound of the present invention (6), 2,5-dioxo-3-(2-propynyl)imidazolidinylmethyl=(1R)-trans-3-[(1EZ)-2-cyano-2-(isopropylthio)ethenyl]-2,2-dimethylcyclopropane carboxylate]",100,100,92,–,–
"C#CCN1CC(=O)N(COC(=O)[C@@H]2[C@@H](C=C(C#N)SCCCC)C2(C)C)C1=O [compound of the present invention (5), 2,5-dioxo-3-(2-propynyl)imidazolidinylmethyl=(1R)-trans-3-[(1EZ)-2-cyano-2-(butylthio)ethenyl]-2,2-dimethylcyclopropane carboxylate]",100,100,83,–,–
"C#CCN1CC(=O)N(COC(=O)[C@@H]2[C@@H](/C=C(\C#N)SCC)C2(C)C)C1=O [compound of the present invention (13), 2,5-dioxo-3-(2-propynyl)imidazolidinylmethyl=(1R)-trans-3-[(1E)-2-cyano-2-(ethylthio)ethenyl]-2,2-dimethylcyclopropane carboxylate]",100,100,–,100,100
"C#CCN1CC(=O)N(COC(=O)[C@@H]2[C@@H](C=C(C#N)SC)C2(C)C)C1=O (relative stereo) [compound of the present invention (1), 2,5-dioxo-3-(2-propynyl)imidazolidinylmethyl=(1R)-trans-3-[(1EZ)-2-cyano-2-(methylthio)ethenyl]-2,2-dimethylcyclopropane carboxylate]",–,–,100,100,100
